Where two headings read alike, the source gives them in different places.
How the values were obtained:
[1] = tested on: lung cancer A-549 cell line; experiment: CellTiter-Glo Luminescent cell viability assay, anti-proliferative activity, A-549; type: cell-based, human; settings: for inhibition at 30 µM: A549, 30 µM single concentration, quadruplicate, read-out: Growth inhibition % A-549; for IC50: read-out: IC50 A-549
Experimental: (§1) The anti-proliferative activity of the title compounds 3a-e, 5a-e, 7a-c, and 10a-l towards cancer cell lines, normal cell lines, and multidrug-resistant lung cancer NCI-H69AR cell line was determined using CellTiter-Glo™ Luminescent cell viability assay according to the previously published procedures[14]^,[15].
(§2) The cancer cell growth inhibitory activity of the synthesised 25 compounds 3a-e, 5a-e, 7a-c, and 10a-l was evaluated in vitro towards three human cancer cell lines, namely lung cancer A-549, human colon cancer HT-29, and breast cancer ZR-75 cell lines using CellTiter-Glo™ Luminescent cell viability assay. Sunitinib was included in this assay as a reference drug.
(§3) The prepared hydrazonoindolin-2-ones were first evaluated at preliminary anti-proliferative assay against the three cancer cell lines in quadruplicate at a single concentration of 30 µM. The data presented as percentage growth inhibition (GI%) caused by the test compounds (Table 1).

[2] = tested on: breast cancer ZR-75 cell line; experiment: CellTiter-Glo Luminescent cell viability assay, anti-proliferative activity, ZR-75; type: cell-based; settings: Homo sapiens, ZR75; 30 µM single concentration, quadruplicate; read-out: Growth inhibition % ZR-75
Experimental: as §1, §2, §3

[3] = tested on: colon cancer HT-29 cell line; experiment: CellTiter-Glo Luminescent cell viability assay, anti-proliferative activity, HT-29; type: cell-based, human; settings: 30 µM single concentration, quadruplicate; for inhibition at 30 µM: Homo sapiens, HT-29, read-out: Growth inhibition % HT-29
Experimental: as §1, §2, §3

[4] = tested on: A-549, ZR-75 and HT-29 cell lines; experiment: Average anti-proliferative activity over the three cancer cell lines; type: cell-based, human; settings: average over A-549, ZR-75, HT-29; for Average growth inhibition % / inhibition at 30 µM: 30 µM; for inhibition at 30 µM / IC50: Homo sapiens; for inhibition at 30 µM: read-out: Average growth inhibition %
Experimental: as §1, §2, §3

[5] = tested on: breast cancer ZR-75 cell line; experiment: CellTiter-Glo Luminescent cell viability assay, anti-proliferative activity, ZR-75; type: cell-based, human
[6] = tested on: colon cancer HT-29 cell line; experiment: CellTiter-Glo Luminescent cell viability assay, anti-proliferative activity, HT-29; type: cell-based; settings: Homo sapiens, mean ± SD of four separate experiments
[7] = Homo sapiens, A549, mean ± SD of four separate experiments
[8] = Homo sapiens, ZR75, mean ± SD of four separate experiments
[9] = mean ± SD of four separate experiments

IC50 [4] [µM] | melting point [°C] | IC50 [1, 7] [µM] | IC50 [5, 8] [µM] | IC50 [6] [µM] | IC50 ([5]; mean ± SD of four separate experiments, listed as 4d) [µM] | IC50 [1, 9] [µM] | IC50 [5, 9] [µM] | Compound | inhibition at 30 µM ([1]; Homo sapiens) [%] | inhibition at 30 µM [2] [%] | inhibition at 30 µM [3] [%] | Average growth inhibition % [4] [%] | inhibition at 30 µM [4] [%] | Growth inhibition % HT-29 [3]
> 30 | 228 to 230 |  |  |  |  |  |  | CC(=O)c1ccc(C=NN=C2C(=O)Nc3ccccc32)cc1 [Compound 3a, 3-((4-Acetylbenzylidene)hydrazono)indolin-2-one] | 12.7 ± 7.1 | 29.6 ± 24.4 | 53.6 ± 12.2 | 32.0 | < 35 | 
14 | 225 to 227 | 11.2 ± 1.45 | 9.72 ± 2.52 | 21.1 ± 1.86 |  |  |  | COC(=O)c1ccc(C=NN=C2C(=O)Nc3ccccc32)cc1 [Compound 3b, Methyl 4-(((2-oxoindolin-3-ylidene)hydrazono)methyl)benzoate] | 68.1 ± 2.8 | 80.6 ± 7 | 92.3 ± 3.7 | 80.3 | > 80 | 
6.25 | 266 to 268 | 6.07 ± 0.9 | 4.2 ± 0.57 | 8.49 ± 1.01 |  |  |  | COC(=O)c1ccc(C=NN=C2C(=O)Nc3ccc(Cl)cc32)cc1 [Compound 3c, Methyl 4-(((5-chloro-2-oxoindolin-3-ylidene)hydrazono)methyl)benzoate] | 93.5 ± 2.8 | 98.9 ± 2.1 | 95.9 ± 4.7 | 96.1 | > 80 | 
> 28.7 | 270 to 272 | 26.1 ± 4.47 | > 30 | > 30 | > 30 |  |  | CC(=O)c1ccc(C=NN=C2C(=O)Nc3ccc(Br)cc32)cc1 [Compound 3d, 3-((4-Acetylbenzylidene)hydrazono)-5-bromoindolin-2-one] | 17.3 ± 10.2 | 53.9 ± 14.4 | 56.8 ± 15.1 |  | 42.7 | 
> 27.8 | 283 to 285 | > 30 | 23.3 | > 30 |  | > 30 |  | COC(=O)c1ccc(C=NN=C2C(=O)Nc3ccc(Br)cc32)cc1 [Compound 3e, Methyl 4-(((5-bromo-2-oxoindolin-3-ylidene)hydrazono)methyl)benzoate] | -4.2 ± 9.3 | 55.9 ± 18.2 | 26.3 ± 24.4 |  | 41.1 | 
 | 238 to 240 |  |  |  |  |  |  | Cc1csc(C=NN=C2C(=O)Nc3ccccc32)n1 [Compound 5a, 3-(((4-Methylthiazol-2-yl)methylene)hydrazono)indolin-2-one] | 2.4 ± 5 | 40.8 ± 25.7 | 37.9 ± 26.3 | 27.0 | < 35 | 
4.37 | 293 to 295 | 4.87 ± 0.49 | 2.09 ± 0.12 | 6.15 ± 0.51 |  |  |  | O=C1Nc2ccc(Cl)cc2C1=NN=Cc1nccs1 [Compound 5b, 5-Chloro-3-((thiazol-2-ylmethylene)hydrazono)indolin-2-one] | 93.6 ± 5.4 | 95 ± 8.2 | 96.2 ± 4.5 |  | 94.9 | 
2.53 | 290 to 292 | 2.15 ± 0.23 | 1.16 ± 0.39 | 4.29 ± 0.25 |  |  |  | Cc1csc(C=NN=C2C(=O)Nc3ccc(Cl)cc32)n1 [Compound 5c, 5-Chloro-3-(((4-methylthiazol-2-yl)methylene)hydrazono)indolin-2-one] | 98.8 ± 1.5 | 98 ± 2.6 | 96.4 ± 4.8 |  | 97.7 | 
13.5 | 260 to 262 | 12.5 ± 1.73 | 12.7 ± 2.4 | 15.3 ± 1.93 |  |  |  | O=C1Nc2ccc(Br)cc2C1=NN=Cc1nccs1 [Compound 5d, 5-Bromo-3-((thiazol-2-ylmethylene)hydrazono)indolin-2-one] | 94.8 ± 2.5 | 96.4 ± 1.5 | 98.5 ± 3.1 |  | 96.6 | 
7.49 | 248 to 250 | 3.54 ± 0.42 | 2.93 ± 0.46 | 8.51 |  |  |  | Cc1csc(C=NN=C2C(=O)Nc3ccc(Br)cc32)n1 [Compound 5e, 5-Bromo-3-(((4-methylthiazol-2-yl)methylene)hydrazono)indolin-2-one] | 95.3 ± 3.1 | 96.9 ± 2.4 | 99 ± 1.1 |  | 97.1 | 
> 27.7 | 283 to 285 | 22.9 ± 3.51 | > 30 | > 30 |  |  | > 30 | O=C1Nc2ccccc2C1=NN=Cc1ccn[nH]1 [Compound 7a, 3-(((1H-pyrazol-5-yl)methylene)hydrazono)indolin-2-one] | 8.2 ± 15.1 | 60.1 ± 5.8 | 60.8 ± 13.1 |  | 43 | 
 | 264 to 266 |  |  |  |  |  |  | O=C1Nc2ccc(Br)cc2C1=NN=Cc1ccn[nH]1 [Compound 7c, 3-(((1H-pyrazol-5-yl)methylene)hydrazono)-5-bromoindolin-2-one] | 32.8 ± 8.9 | 19.2 ± 22.8 | 28.8 ± 17.3 | 26.9 | < 35 | 
11.1 |  | 9.41 ± 1.29 | 4.35 | 19.4 ± 1.03 |  |  |  | O=C1Nc2ccccc2C1=NNc1nc(-c2ccccc2)cs1 [Compound 10a, 3–(2-(4-Phenylthiazol-2-yl)hydrazono)indolin-2-one] | 70.7 ± 5.7 | 76.9 ± 7.1 | 91.2 ± 8.3 |  | 79.6 | 
> 28.2 | 284 to 286 | > 30 | 24.6 | > 30 |  | > 30 |  | Cc1ccc(-c2csc(NN=C3C(=O)Nc4ccccc43)n2)cc1 [Compound 10b, 3–(2-(4–(4-Tolyl)thiazol-2-yl)hydrazono)indolin-2-one] | 24.4 ± 14.1 | 62.1 ± 10.7 | 33.9 ± 21.2 |  | 40.1 | 
> 17.4 | 295 to 297 | 17.2 ± 2.56 | 4.89 | > 30 |  |  |  | O=C1Nc2ccccc2C1=NNc1nc(-c2ccc(Cl)cc2)cs1 [Compound 10c, 3–(2-(4–(4-Chlorophenyl)thiazol-2-yl)hydrazono)indolin-2-one] | 31.4 ± 9.1 | 77.1 ± 10.9 | 85.4 ± 7 |  | 64.6 | 
 |  |  |  |  |  |  |  | O=C1Nc2ccccc2C1=NNc1nc(-c2ccc(Br)cc2)cs1 [Compound 10d, 3–(2-(4–(4-Bromophenyl)thiazol-2-yl)hydrazono)indolin-2-one] | 12.3 ± 11.3 | 53.8 ± 19.2 | 20.6 ± 26.9 | 28.9 | < 35 | 
> 25.4 | > 300 | 22.7 ± 3.71 | 23.4 | > 30 |  |  |  | Cc1ccc(-c2csc(NN=C3C(=O)Nc4ccc(Cl)cc43)n2)cc1 [Compound 10f, 5-Chloro-3–(2-(4-(p-tolyl)thiazol-2-yl)hydrazono)indolin-2-one] | 27.4 ± 5.8 | 50.3 ± 33.6 | 54.4 ± 19.5 |  | 44 | 
> 12.7 | > 300 | 6.07 ± 7.41 | 1.87 ± 0.26 | > 30 |  |  |  | O=C1Nc2ccc(Cl)cc2C1=NNc1nc(-c2ccc(Cl)cc2)cs1 [Compound 10g, 5-Chloro-3–(2-(4–(4-chlorophenyl)thiazol-2-yl)hydrazono)indolin-2-one] | 18.9 ± 3.2 | 52.8 ± 9.4 | 34.4 ± 23.6 |  | 35.4 | 
 | > 300 |  |  |  |  |  |  | O=C1Nc2ccc(Cl)cc2C1=NNc1nc(-c2ccc(Br)cc2)cs1 [Compound 10h, 3–(2-(4–(4-Bromophenyl)thiazol-2-yl)hydrazono)-5-chloroindolin-2-one] | -2.6 ± 7.5 | 9 ± 19.2 | -8.3 ± 43.8 |  |  | stimulated the growth
 | > 300 |  |  |  |  |  |  | O=C1Nc2ccc(Br)cc2C1=NNc1nc(-c2ccc(Br)cc2)cs1 [Compound 10l, 5-Bromo-3–(2-(4–(4-bromophenyl)thiazol-2-yl)hydrazono)indolin-2-one] | -20.1 ± 5.9 | 40.9 ± 16.7 | 27.8 ± 4.3 | 34.4 | < 35 | 
